Measurements: publication PMC10818931, “In Vitro Evaluation of Drug–Drug Interaction Potential of Epetraborole, a Novel Bacterial Leucyl-tRNA Synthetase Inhibitor” (Pharmaceuticals, 2024)

Legend:
Assay type in all cases: in vitro ADME
MATE1 = target: T1, MATE1 (Homo sapiens, UniProt Q96FL8); experiment: Transporter inhibition; conditions: read-out: as an Inhibitor, IC50
T1 construct: host or cells: MDCK
T1 sequence (Q96FL8 1-570): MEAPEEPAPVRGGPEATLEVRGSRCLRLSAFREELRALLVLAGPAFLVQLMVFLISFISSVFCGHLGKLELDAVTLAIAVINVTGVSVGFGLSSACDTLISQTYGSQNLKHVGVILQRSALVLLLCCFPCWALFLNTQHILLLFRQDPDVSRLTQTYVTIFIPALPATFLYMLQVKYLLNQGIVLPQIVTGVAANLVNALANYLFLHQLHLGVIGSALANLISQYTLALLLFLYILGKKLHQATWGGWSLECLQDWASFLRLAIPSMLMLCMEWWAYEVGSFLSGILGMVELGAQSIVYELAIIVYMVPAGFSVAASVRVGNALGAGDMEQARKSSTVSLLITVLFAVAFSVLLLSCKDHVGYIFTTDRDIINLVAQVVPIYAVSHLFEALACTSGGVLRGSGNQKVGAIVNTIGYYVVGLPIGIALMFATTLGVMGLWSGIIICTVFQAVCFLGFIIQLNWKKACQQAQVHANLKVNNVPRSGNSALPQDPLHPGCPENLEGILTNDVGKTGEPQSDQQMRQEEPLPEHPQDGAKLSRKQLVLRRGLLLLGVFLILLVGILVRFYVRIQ

OAT3 = target: T2, OAT3 (Homo sapiens, UniProt Q8TCC7); experiment: Substrate potential in transporter-transfected MDCK cells
T2 construct: host or cells: MDCK
T2 sequence (Q8TCC7 1-542): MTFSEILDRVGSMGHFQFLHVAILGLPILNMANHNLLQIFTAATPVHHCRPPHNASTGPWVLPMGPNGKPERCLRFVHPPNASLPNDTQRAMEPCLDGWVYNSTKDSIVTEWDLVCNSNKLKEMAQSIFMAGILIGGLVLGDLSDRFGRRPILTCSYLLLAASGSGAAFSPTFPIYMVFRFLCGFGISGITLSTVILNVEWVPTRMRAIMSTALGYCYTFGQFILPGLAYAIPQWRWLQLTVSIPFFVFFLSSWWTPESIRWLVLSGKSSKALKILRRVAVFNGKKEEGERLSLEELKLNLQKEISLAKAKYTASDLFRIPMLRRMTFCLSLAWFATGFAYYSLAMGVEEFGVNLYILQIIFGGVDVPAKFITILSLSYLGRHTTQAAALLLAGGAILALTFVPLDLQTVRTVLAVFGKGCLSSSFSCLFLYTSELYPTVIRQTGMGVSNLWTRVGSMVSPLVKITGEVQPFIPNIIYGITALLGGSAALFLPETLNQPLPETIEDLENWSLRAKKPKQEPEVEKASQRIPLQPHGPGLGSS
Method: (§1) The uptake of a probe substrate of each transporter was conducted in parallel with the test article in separate wells of the same batch of vector control and transporter-transfected cells. Cells were incubated at 37 °C with 5% CO2 with 500 μL of dosing solution for different periods of time.

OATP1B1 = target: T3, OATP1B1 (Homo sapiens, UniProt Q9Y6L6); experiment: as above
T3 construct: host or cells: MDCK
T3 sequence (Q9Y6L6 1-691): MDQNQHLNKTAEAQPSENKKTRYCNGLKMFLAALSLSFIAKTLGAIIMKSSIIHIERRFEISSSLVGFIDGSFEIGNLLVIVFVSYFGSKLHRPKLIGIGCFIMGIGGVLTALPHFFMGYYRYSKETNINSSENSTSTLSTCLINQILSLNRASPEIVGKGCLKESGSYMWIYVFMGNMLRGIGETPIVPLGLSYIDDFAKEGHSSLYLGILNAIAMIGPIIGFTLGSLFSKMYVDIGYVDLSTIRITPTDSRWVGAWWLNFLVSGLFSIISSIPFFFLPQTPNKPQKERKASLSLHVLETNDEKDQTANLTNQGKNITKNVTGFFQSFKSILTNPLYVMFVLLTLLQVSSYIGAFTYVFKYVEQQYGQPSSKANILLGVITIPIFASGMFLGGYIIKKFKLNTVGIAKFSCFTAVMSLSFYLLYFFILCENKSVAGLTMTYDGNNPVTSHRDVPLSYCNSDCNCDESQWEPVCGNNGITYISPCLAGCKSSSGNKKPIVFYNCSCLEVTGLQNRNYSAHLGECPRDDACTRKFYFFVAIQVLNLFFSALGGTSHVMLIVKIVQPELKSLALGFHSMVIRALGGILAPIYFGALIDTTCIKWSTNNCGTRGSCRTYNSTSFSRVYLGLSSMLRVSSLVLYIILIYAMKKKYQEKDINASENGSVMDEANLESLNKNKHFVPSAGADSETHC
Method: as §1

Row | SMILES | IC50 (MATE1) | Influx ratio (OAT3) | as a Substrate (OAT3) | Influx ratio (OATP1B1) | as a Substrate (OATP1B1)
1 | NC[C@H]1OB(O)c2c(OCCCO)cccc21 [EBO, Epetraborole] | > 100 µM | < 2 | No | < 2 | No
2 | NC[C@H]1OB(O)c2c(OCCC(=O)O)cccc21 [M3] | > 250 µM | < 2 | No | < 2 | No
